Laboratory results published in PMC10799042 (Scientific Reports, 2024).

Columns and labels:
[1] = system: malondialdehyde (MDA); assay: Lipid peroxidation (LPO) assay, MDA in brain homogenate; format: in vivo; conditions: brain THS of mice, scopolamine 1.5 mg/kg i.p.; donepezil and compounds 2 mg/kg p.o.; mean ± SD
Protocol: (§1) The animals were properly acclimated before being randomly placed into 12 groups (I-XII), with six animals in each group. […] Following the delivery of the dose to the mouse, the rodent's behaviour was assessed using the traditional Morris water maze (MWM) technique.
(§2) After five days of behavioral assessment, the mice's brains were removed and homogenized (blended) in chilled phosphate buffer (pH 7.4) at a concentration of 10% w/v (weight per volume). The homogenates were then centrifuged (spun at high speed) for 20 min at 4 °C to separate the supernatant (liquid) from the pellet (solid material). The supernatant was then collected to measure biological substances.
The amount of malondialdehyde (MDA), a marker of lipid peroxidation (LPO), was measured using a method described by Wills[10]. Tris–HCl buffer and THS were mixed and incubated at 37 °C for 2 h with 10% trichloroacetic acid. After incubation, the mixture was centrifuged again (at 1000 rpm for 10 min). […] After cooling, 1.0 mL of double-distilled water was added, and the absorbance was measured at 532 nm.

[2] = system: scopolamine-induced memory impairment and learning disability in mice; assay: Morris water maze, scopolamine-induced memory impairment; format: in vivo, Swiss albino male mice; conditions: for escape latency versus scopolamine-treated mice (in words) / improvement of cognitive defects (in words): 2 mg/kg; for escape latency versus scopolamine-treated mice (in words): day 1 to 5; for Escape latency, 1st Day: day 1; for Escape latency, 2nd Day: day 2; for Escape latency, 3rd Day: day 3; for Escape latency, 4th Day: day 4; for Escape latency, 5th Day: day 5; for improvement of cognitive defects (in words): compared with donepezil 2 mg/kg
Protocol: Swiss albino male mice weighing 25–30 g were purchased from LLRUVAS in Hisar, Haryana, India. […] The housing, care, and handling of the animals were done per CPCSEA requirements. The animals were exposed to the laboratory setting for seven days before the experiment.
as §1
Five days of continuous animal evaluations were conducted using the MWM model. […] The tank was placed in a dim laboratory, and using wires anchored at the pool's edge at an angle to one another, it was divided into four equal pieces (P1–P4). A stage in the targeted area (P4) of the pool with an upper face (6 × 6 cm^2) immersed in the water (1.0 cm below the surface). The location of the stage stayed the same throughout the evaluation. The animals were subjected to water pools throughout the evaluation by turning their heads towards the wall from any of the four segments, namely P1-P4, and being given 90 s to recognise the stage placed in a pool. If the animal couldn't get to the stage in 90 s, they were gently guided onto the stage under supervision. On the sixth day, one of the parameters used to determine if cognitive impairments have recovered was the time it took the mice to travel from the initial portion to locate the hidden stage in the intended part (escape latency). […]

[3] = system: Superoxide dismutase (SOD); assay: Superoxide dismutase (SOD) assay in brain homogenate; format: in vivo; conditions: brain THS of mice, scopolamine 1.5 mg/kg i.p.; donepezil and compounds 2 mg/kg p.o.; mean ± SD
Protocol: as §1, §2
The samples contained EDTA, sodium carbonate, and NBT, and the assay was performed using Kono's method. Each sample tube contained 2.0 mL of this mixture, as well as THS and hydroxylamine. The absorbance of the mixture was measured at 560 nm every 30 or 60 s for 2 min to track changes in absorbance.

[4] = target: T1, Acetylcholinesterase (AChE) (Mus musculus, UniProt P21836); conditions: brain THS of mice, scopolamine 1.5 mg/kg i.p.; donepezil and compounds 2 mg/kg p.o.; mean ± SD
T1 sequence (P21836 32-614): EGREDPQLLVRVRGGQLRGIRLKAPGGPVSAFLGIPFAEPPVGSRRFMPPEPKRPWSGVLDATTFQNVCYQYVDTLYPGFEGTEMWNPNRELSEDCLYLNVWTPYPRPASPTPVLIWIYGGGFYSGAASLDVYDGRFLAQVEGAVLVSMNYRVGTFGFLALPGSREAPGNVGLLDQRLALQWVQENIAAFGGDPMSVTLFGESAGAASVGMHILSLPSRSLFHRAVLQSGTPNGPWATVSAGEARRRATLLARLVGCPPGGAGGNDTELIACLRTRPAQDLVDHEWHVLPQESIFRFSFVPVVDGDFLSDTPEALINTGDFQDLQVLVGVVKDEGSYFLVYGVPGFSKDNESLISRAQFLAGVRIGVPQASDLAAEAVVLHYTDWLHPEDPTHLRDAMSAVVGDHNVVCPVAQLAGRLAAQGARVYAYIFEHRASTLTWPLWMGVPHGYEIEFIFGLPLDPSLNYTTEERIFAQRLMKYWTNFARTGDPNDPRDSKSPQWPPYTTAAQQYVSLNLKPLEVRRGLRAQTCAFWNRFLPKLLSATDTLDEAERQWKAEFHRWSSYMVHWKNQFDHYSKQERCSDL
Protocol: as §1, §2
Employing Ellman et al., methodology, AChE levels were quantified in tissue homogenate supernatant (THS) to evaluate cholinergic abnormalities.

[5] = system: Catalase; assay: Catalase assay in brain homogenate; format: in vivo; conditions: brain THS of mice, scopolamine 1.5 mg/kg i.p.; donepezil and compounds 2 mg/kg p.o.; mean ± SD
Protocol: as §1, §2
Employing the methodology of Luck et al., catalase activity was quantified. The sample contained H2O2 (1.0 mL, 0.019 M), phosphate buffer (1.95 mL, 0.05 M, pH 7.0), and THS (0.05 mL). The optical density was computed at a wavelength of 240 nm. The findings were shown as μM H2O2 decomposition/min/mg protein[13].

[6] = system: nitrite; assay: Nitrite assay (Greiss reagent) in brain homogenate; format: in vivo; conditions: brain THS of mice, scopolamine 1.5 mg/kg i.p.; donepezil and compounds 2 mg/kg p.o.; mean ± SD
Protocol: as §1, §2
The amount of nitric oxide in THS was calculated using Greiss' reagent, a mixture of chemicals that reacts with nitric oxide to produce a colored product. The absorbance of the colored product was computed at 540 nm and the concentration of nitrite was determined using a standard curve of known nitrite concentrations.

[7] = system: Reduced glutathione (GSH); assay: Reduced glutathione (GSH) assay in brain homogenate; format: in vivo; conditions: brain THS of mice, scopolamine 1.5 mg/kg i.p.; donepezil and compounds 2 mg/kg p.o.; mean ± SD
Protocol: as §1, §2
The method described by Jollow et al. was used to measure glutathione (GSH) levels. First, 1.0 mL of 4% sulfosalicylic acid was added to 1.0 mL of tissue homogenate to precipitate the GSH. The mixture was then incubated at 4 °C for 1 h and centrifuged at 1200 rpm for 10 min at 4 °C. The supernatant was collected and diluted to a final volume of 3.0 mL with phosphate buffer and Ellman's reagent. […]

[8] = mice, scopolamine 1.5 mg/kg i.p., donepezil and compounds 2 mg/kg p.o. with scopolamine, mean ± SD

Molecule	LPO assay, MDA levels [1]	escape latency versus scopolamine-treated mice (in words) [2]	Escape latency, 1st Day [2, 8] [s]	Escape latency, 2nd Day [2, 8] [s]	Escape latency, 3rd Day [2, 8] [s]	Escape latency, 4th Day [2, 8] [s]	Escape latency, 5th Day [2, 8] [s]	SOD assay, SOD units/mg protein [3] [SOD units/mg protein]	μM of AChE/min/mg protein [4]	Catalase assay, Catalase activity [5] [min⁻¹]	Nitrite assay, nitrite conc. [6] [μM/mg protein]	GSH assay, μmol of GSH/mg Protein [7]	improvement of cognitive defects (in words) [2]	TSTQ (time spent in the target quadrant) ([2]; mice, scopolamine 1.5 mg/kg i.p., donepezil and compounds 2 mg/kg p.o. with scopolamine, probe trial, mean ± SD) [s]
2-(1-benzylpiperidin-4-yl)-4-chloro-6,7-dimethoxyquinoline [Compound 15]	8.54 ± 0.02 nM/mg of tissue	significantly reduced escape latency	80.5 ± 0.86	49.83 ± 0.75	29.16 ± 3.07	11.5 ± 1.04	3.83 ± 1.34	3.14 ± 0.03	0.02 ± 0.02 μM of AChE/min/mg protein	5.35 ± 0.03	14.66 ± 0.04	0.09 ± 0.003 μmol of GSH/mg Protein		
2-(1-benzylpiperidin-4-yl)-6,7-dimethoxy-4-(4-(trifluoromethyl)phenyl)quinoline [Compound 19]	9.25 ± 0.02 nM/mg of tissue	significantly reduced escape latency	54.83 ± 1.47	44.83 ± 2.71	21.33 ± 2.68	13.16 ± 2.31	3.66 ± 0.94	3.09 ± 0.03	0.01 ± 0.02 μM of AChE/min/mg protein	5.17 ± 0.05	11.31 ± 0.03	0.09 ± 0.005 μmol of GSH/mg Protein		
2-(1-benzylpiperidin-4-yl)-6,7-dimethoxy-4-(4-methoxyphenyl)quinoline [Compound 18]	8.52 ± 0.02 nM/mg of tissue	significantly reduced escape latency		44.83 ± 3.125	24.66 ± 1.24	13.83 ± 2.63	3.33 ± 1.37	4.08 ± 0.02	0.01 ± 0.01 μM of AChE/min/mg protein	5.53 ± 0.01	10.51 ± 0.03	0.11 ± 0.001 μmol of GSH/mg Protein	most potent	
2-(2-(1-benzylpiperidin-4-yl)ethyl)-4-chloro-6,7-dimethoxyquinoline [Compound 17]	8.73 ± 0.05 nM/mg of tissue	significantly reduced escape latency	81 ± 0.89	32.83 ± 1.83	22.66 ± 1.79	12.33 ± 2.25	4.16 ± 0.74	3.09 ± 0.02	0.02 ± 0.01 μM of AChE/min/mg protein	4.76 ± 0.02	12.57 ± 0.05	0.11 ± 0.006 μmol of GSH/mg Protein		
2-((1-benzylpiperidin-4-yl)methyl)-4-chloro-6,7-dimethoxyquinoline [Compound 16]	8.52 ± 0.05 nM/mg of tissue	significantly reduced escape latency	76 ± 3.3	30.8 ± 0.75	21 ± 0.81	16 ± 1.54	5.33 ± 1.24	3.07 ± 0.02	0.01 ± 0.01 μM of AChE/min/mg protein	4.66 ± 0.04	11.74 ± 0.03	0.11 ± 0.002 μmol of GSH/mg Protein		
6-chloro-N-(1-(1-(3,4-dimethoxybenzyl)-2-oxopyrrolidin-3-yl)piperidin-4-yl)pyridine-3-sulfonamide [Compound 9]	8.48 ± 0.02 nM/mg of tissue	significantly reduced escape latency	80.5 ± 0.84	40.83 ± 0.98	23.5 ± 2.92	15.83 ± 3.37	2.66 ± 0.68	4.09 ± 0.02	0.01 ± 0.01 μM of AChE/min/mg protein	6.23 ± 0.02	10.42 ± 0.04	0.11 ± 0.002 μmol of GSH/mg Protein	most potent	
CN1[C@@H]2C[C@@H](OC(=O)[C@H](CO)c3ccccc3)C[C@H]1[C@@H]1O[C@@H]12 [Scopolamine, scopolamine, reference compound]			78.65 ± 0.82	80.64 ± 3.91	82.82 ± 3.79	84.15 ± 3.31	86.25 ± 3.31							18.55 ± 0.88
N-(1-benzylpiperidin-4-yl)-2-(2-oxoindolin-3-yl)acetamide [Compound 23]		significantly reduced escape latency	55.33 ± 1.96	45.16 ± 0.75	35.33 ± 2.56	11.83 ± 1.94	4.16 ± 1.067		0.01 ± 0.04 μM of AChE/min/mg protein					
